# Results as given in patent US12409209B2, “Biological function regulating agent, epidermal metabolism promoting agent, fat accumulation inhibiting agent, fat decomposition promoting agent, adiponectin production promoting agent, functional food, cosmetic product, and method for producing biological function regulating agent” (NITTA GELATIN INC., priority 2020, dated 2025).
# Legend:
# [1] = system: fat cells differentiated from mouse-derived precursor fat cells (3T3-L1); assay: Third test: fat accumulation in fat cells (Oil Red O, OD 520 nm); assay type: cell-based; settings: positive control, final conc. 2 μg/mL; 3T3-L1 5 passages, 9 PDL; average of three
# Experimental: Specifically, the third test was conducted in accordance with the following procedure. The mouse-derived precursor fat cells (manufactured by Research Resources Bank, Resource No. JCRB 9014, Lot No. 01282009) were precultured in a culture medium (DMEM/F12 medium (passage culture, catalog No: “11330-032”, manufactured by Gibco Company, containing 10 mass % FBS, penicillin and streptomycin). Subsequently, from the medium and the cells subjected to the preculture, a cell suspension liquid containing the cells at 3×10^4 cells/mL was prepared. Further, 5 mL of the cell suspension liquid was seeded in each of 60 mm dishes (catalog No: Corning, Cat. No. 430166) (1.5×10^5 cells/dish), and cultured for 2 days under the condition of 37° C. (5 vol % CO2). […] 200 μL of the extraction liquid was transferred to a 96-well plate, and the absorbance at OD 520 nm was measured with an absorption spectrometer (trade name: “Synergy HTX” manufactured by Biotech Japan Corporation). It is evaluated that the higher the value of the absorbance at OD 520 nm, the more likely the fat accumulation is to occur in fat cells. […] The fat accumulation ratio in fat cells containing each sample, the berberine chloride solution or RO water was determined in accordance with the following calculation expression. […]
# [2] = system: fat cells differentiated from mouse-derived precursor fat cells (3T3-L1); assay: Eleventh test: fat accumulation in fat cells (Oil Red O); assay type: cell-based; settings: positive control, final conc. 2 ug/mL; 3T3-L1 7 passages, 13 PDL
# Experimental: The mouse-derived precursor fat cells (manufactured by Research Resources Bank, Resource No. JCRB 9014, Lot No. 01282009) were precultured in a culture medium (DMEM/F12 medium (passage culture, catalog No: “11330-032”, manufactured by Gibco Company, containing 10 mass % FBS, penicillin and streptomycin). Subsequently, from the medium and the cells subjected to the preculture, a cell suspension liquid containing the cells at 3×10^4 cells/mL was prepared. Further, 5 mL of the cell suspension liquid was seeded in each of 60 mm dishes (catalog No: Corning, Cat. No. 430166) (1.5×10^5 cells/dish), and cultured for 2 days under the condition of 37° C. (5 vol % CO2). […] 200 μL of the extraction liquid was transferred to a 96-well plate, and the absorbance at OD 520 nm was measured with an absorption spectrometer (trade name: “Synergy HTX” manufactured by Biotech Japan Corporation). It is evaluated that the higher the value of the absorbance at OD 520 nm, the more likely the fat accumulation is to occur in fat cells. […] The fat accumulation ratio in fat cells containing each sample, the berberine chloride solution or RO water was determined in accordance with the following calculation expression. Fat accumulation ratio (%)=[(measured value at OD 520 nm for each sample)/(measured value at OD 520 nm for blank)×100] […]
compound,measurement,setting,value
"COc1ccc2cc3[n+](cc2c1OC)CCc1cc2c(cc1-3)OCO2 [Berberine chloride, berberine chloride]","Fat accumulation ratio, Ave (Blank = 100)",[1],37%
same,"Fat accumulation ratio, Ave (Blank = 100)",[2],60%
